Tests used:
[1] = target: T1, β5 subunit of the human immunoproteasome (IPS) (Homo sapiens, UniProt P28062); experiment: β5 inhibition assay, human immunoproteasome (Suc-LLVY-AMC); type: biochemical; settings: IC50 class, Suc-LLVY-AMC substrate
T1 construct: purchased Boston Biochem E-370
Method in brief: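 β5 activity is read as liberated AMC fluorescence (355/460 nm) after 4 h dark reaction at RT with 22.6 μM Suc-LLVY-AMC, stopped by 1 μM bortezomib. Beforehand, 1 nM human IPS and compound sat 10 min at RT in HEPES pH 7.5 buffer containing NaCl, 0.02% SDS and DTT.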

[2] = target: T2, β5 subunit of the human constitutive proteasome (CPS) (Homo sapiens, UniProt P28074); experiment: β5 inhibition assay, human constitutive proteasome (Suc-LLVY-AMC); type: biochemical; settings: IC50 class, Suc-LLVY-AMC substrate
T2 construct: purchased Boston Biochem E-360
Protocol: The enzymatic activity of the β5 subunit of the human constitutive proteasome (CPS) is analyzed. In another assay, which differs from the assay of the human constitutive proteasome only in using the human immunoproteasome (IPS) the enzymatic activity of the β5 subunit of the human immunoproteasome (IPS) is analyzed. […] Inhibition is indicated as IC50 [nM] (“-”=not measured).

HT-29 cells = experiment: CellTiter-Glo luminescent cell viability assay with HT-29 cells (72h incubation); type: cell-based, human; settings: Homo sapiens, HT-29, HT29 cells, read-out: CTG HT29
Method in brief: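 Viability read as CellTiter-Glo luminescence after 72 h compound exposure, with 10 μM staurosporine and DMSO as control wells. Seeding 400 cells per well, compound added 24 h post-plating; IC50 from curve fitting.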

SMILES	IC50 [1]	IC50 [2]	IC50 (HT-29 cells)
Cc1ccc2cc1CNC(=O)[C@H](CCc1ccccc1)NC(=O)[C@@H](NC(=O)OCc1ccccc1)CC(=O)N1CCCC3(CC(C3)O2)C1 [Compound 300]	< 100 nM	100 to 500 nM	100 to 500 nM
CC(=O)N[C@H]1CC(=O)N2CCCC(CCOc3ccc(C)c(c3)CNC(=O)C(c3cnn(C)c3)NC1=O)C2 (stereo partly drawn) [Compound 552, N-((12S)-5^4-methyl-9-(1-methyl-1H-pyrazol-4-yl)-8,11,14-trioxo-4-oxa-7,10-diaza-1(3,1)-piperidina-5(1,3)-benzenacyclotetradecaphane-12-yl)acetamide]	< 100 nM	< 100 nM	< 100 nM
CC(=O)N[C@H]1CC(=O)N2CCCC(CCOc3ccc(C)c(c3)CNC(=O)C(c3coc(C)n3)NC1=O)C2 (stereo partly drawn) [Compound 553, N-((12S)-5^4-methyl-9-(2-methyloxazol-4-yl)-8,11,14-trioxo-4-oxa-7,10-diaza-1(3,1)-piperidina-5(1,3)-benzenacyclotetradecaphane-12-yl)acetamide]	< 100 nM	< 100 nM	< 100 nM
Cc1ccc2cc1CNC(=O)[C@H](CCc1ccccc1)NC(=O)[C@@H](Nc1ncccn1)CC(=O)N1CCCC(CCO2)C1 (stereo partly drawn) [Compound 34, (9S,12S)-5^4-methyl-9-phenethyl-12-(pyrimidin-2-ylamino)-4-oxa-7,10-diaza-1(3,1)]	< 100 nM	< 100 nM	< 100 nM

More lines, now with the values ahead:

IC50 [1]	IC50 [2]	IC50 (HT-29 cells)	SMILES
< 100 nM	< 100 nM	< 100 nM	Cc1ccc2cc1CNC(=O)C(CCc1cnccn1)NC(=O)[C@@H](NC(=O)Cc1ccc(N)cc1F)CC(=O)N1CCCC(CCO2)C1 (stereo partly drawn) [Compound 372, 2-(4-amino-2-fluorophenyl)-N-((9S,12S)-5^4-methyl-8,11,14-trioxo-9-(2-(pyrazin-2-yl)ethyl)-4-oxa-7,10-diaza-1(3,1)-piperidina-5(1,3)-benzenacyclotetradecaphane-12-yl) acetamide]
< 100 nM	< 100 nM	100 to 500 nM	Cc1ccc2cc1CNC(=O)[C@H](CCc1ccccc1)NC(=O)[C@@H](NC(=O)Cc1nnc(N)[nH]1)CC(=O)N1CCCC(CCO2)C1 (stereo partly drawn) [Compound 340, 2-(5-amino-1H-1,2,4-triazol-3-yl)-N-((9S,12S)-5^4-methyl-8,11,14-trioxo-9-phenethyl-4-oxa-7,10-diaza-1(3,1)-piperidina-5(1,3)-benzenacyclotetradecaphane-12-yl)acetamide]
< 100 nM	< 100 nM	< 100 nM	CC(=O)N[C@H]1CC(=O)N2CCCC(CCOc3ccc(C)c(c3)CNC(=O)C(Cc3ccccc3)NC1=O)C2 (stereo partly drawn) [Compound 558, N-((12S)-9-benzyl-5^4-methyl-8,11,14-trioxo-4-oxa-7,10-diaza-1(3,1)-piperidina-5(1,3)-benzenacyclotetradecaphane-12-yl)acetamide]
< 100 nM	< 100 nM	< 100 nM	Cc1ccc2cc1CNC(=O)[C@H](CCc1ccccc1)NC(=O)[C@@H](NC(=O)Cc1cc(Cl)c(N)c(Cl)c1)CC(=O)N1CCCC(CCO2)C1 (stereo partly drawn) [Compound 320, 2-(4-amino-3,5-dichlorophenyl)-N-((9S,12S)-5^4-methyl-8,11,14-trioxo-9-phenethyl-4-oxa-7,10-diaza-1(3,1)-piperidina-5(1,3)-benzenacyclotetradecaphane-12-yl)acetamide]
< 100 nM	< 100 nM	–	Cc1ccc2cc1CNC(=O)[C@H](CCc1ccccc1)NC(=O)[C@@H](NC(=O)Cc1ccccc1C)CC(=O)N1CCCC(CCO2)C1 (stereo partly drawn) [Compound 373, N-((9S,12S)-5^4-methyl-8,11,14-trioxo-9-phenethyl-4-oxa-7,10-diaza-1(3,1)-piperidina-5(1,3)-benzenacyclotetradecaphane-12-yl)-2-(o-tolyl)acetamide]

Reference: patent US20240415819A1, “MACROCYCLIC COMPOUNDS AS PROTEASOME SUBUNIT BETA TYPE-5 INHIBITORS” (Lead Discovery Center GmbH, priority 2021, published 2024)
